Measured values taken from paper PMC12094722, “Small-molecule inhibitors of 6-phosphofructo-1-kinase simultaneously suppress lactate and superoxide generation in cancer cells” (PLOS One, 2025).
Values joined by “and” are separate entries in the source; they are usually repeats but may differ in a detail not shown here. Equal entries are not always repeated. Values belong to the compound of their own block, whether it stands above or below them.

Legend:
[1] = molecular target: T1, native nPFK-M enzyme (85 kDa) (Homo sapiens, UniProt P08237); experiment: PFK1 enzymatic assay, native nPFK-M; format: biochemical
T1 construct: made in house; host or cells: Saccharomyces cerevisiae pfk-null HD-114-8A
T1 sequence (P08237 1-780): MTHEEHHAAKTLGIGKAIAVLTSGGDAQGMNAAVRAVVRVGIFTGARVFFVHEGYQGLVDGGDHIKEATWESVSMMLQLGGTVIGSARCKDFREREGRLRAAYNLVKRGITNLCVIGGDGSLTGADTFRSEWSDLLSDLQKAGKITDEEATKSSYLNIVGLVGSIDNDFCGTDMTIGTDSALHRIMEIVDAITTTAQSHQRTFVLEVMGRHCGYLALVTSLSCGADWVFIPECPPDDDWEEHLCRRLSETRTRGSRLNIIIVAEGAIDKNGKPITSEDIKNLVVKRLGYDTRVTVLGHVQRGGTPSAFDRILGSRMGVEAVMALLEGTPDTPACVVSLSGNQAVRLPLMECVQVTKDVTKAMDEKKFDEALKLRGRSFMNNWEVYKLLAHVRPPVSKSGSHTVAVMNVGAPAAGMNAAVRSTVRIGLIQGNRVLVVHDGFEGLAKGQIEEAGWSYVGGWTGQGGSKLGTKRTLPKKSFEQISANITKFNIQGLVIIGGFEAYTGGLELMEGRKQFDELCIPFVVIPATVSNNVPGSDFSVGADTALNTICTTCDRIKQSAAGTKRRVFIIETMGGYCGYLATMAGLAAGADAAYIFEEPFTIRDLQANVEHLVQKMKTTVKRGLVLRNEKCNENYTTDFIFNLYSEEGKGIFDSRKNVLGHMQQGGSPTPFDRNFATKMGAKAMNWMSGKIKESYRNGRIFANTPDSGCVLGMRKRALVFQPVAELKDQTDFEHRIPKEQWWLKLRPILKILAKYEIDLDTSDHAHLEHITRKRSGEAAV
Protocol: (§1) To evaluate the ability of selected compounds to suppress the activities of the recombinant human native and modified PFK-M and PFK-L enzymes, they were constructed in yeast S. cerevisiae as a host organism (S1 Text), partially purified, and their activities assayed (S2 Text).
(§2) S2 Text: PFK1 Enzymatic assays.
(§3) PFK1 activities were determined spectrophotometrically at 340 nm (Lambda 25 UV/VIS spectrophotometer, Perkin Elmer) as reported previously using a coupled reaction system. Unless otherwise stated, in a final volume of 1 mL, the assay mixture contained 50 mM HEPES buffer (pH 7.8), 1 mM DTE, 100 mM KCl, 5 mM MgCl2, 0.2 mM NADH, 0,025 to 2 mM F6P, 10% v/v polyethylene glycol (PEG 6000), 0.9 U/mL aldolase (Sigma-Aldrich, Steinheim, Germany), 15 U/mL triosephosphate isomerase, and 15 U/mL glycerol-3-phosphate dehydrogenase (Sigma-Aldrich, Steinheim, Germany). Before use, the auxiliary enzymes were dialyzed overnight at 4 °C against 50 mM HEPES buffer (pH 7.8) containing 1 mM DTE, with one buffer […]
(§4) induce inhibition. The enzyme concentration used in the kinetic assay was 0.2 µg/mL. […] Total protein concentrations of the samples were determined using a Bio-Rad protein assay (Bio-Rad, Hercules, Ca) with bovine y-globulin […]

[2] = molecular target: T2, modified sfPFK-M enzyme (47 kDa fragment) (Homo sapiens, UniProt P08237); experiment: PFK1 enzymatic assay, modified sfPFK-M; format: biochemical
T2 sequence (P08237 2-390 limits assumed): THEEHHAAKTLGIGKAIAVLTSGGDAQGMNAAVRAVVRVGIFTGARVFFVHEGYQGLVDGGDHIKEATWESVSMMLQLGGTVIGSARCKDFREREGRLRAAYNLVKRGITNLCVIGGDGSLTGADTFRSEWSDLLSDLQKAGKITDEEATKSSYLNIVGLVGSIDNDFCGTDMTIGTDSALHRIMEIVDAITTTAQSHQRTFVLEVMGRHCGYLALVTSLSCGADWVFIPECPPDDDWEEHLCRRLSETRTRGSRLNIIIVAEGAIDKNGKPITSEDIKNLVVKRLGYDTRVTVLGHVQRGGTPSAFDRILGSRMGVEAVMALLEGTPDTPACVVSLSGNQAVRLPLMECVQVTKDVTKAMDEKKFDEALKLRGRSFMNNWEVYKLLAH
Protocol: as §1, §2, §3, §4

Jurkat cells [3] = format: cell-based
Protocol: (§5) As a negative control, 100 µL Triton X-100 was added to wells containing 1mL medium with cells. For the survival evaluation in the dose-dependent tests, the measurements were conducted at the end of incubation at 72 hours of growth in the medium.
The potential cytotoxicity of the inhibitors was also assessed. At the end of the incubation, the average percentage of dead cells was determined in the presence of a vehicle and a 80 µM concentration of each inhibitor.

COLO 829 cells [4] = experiment: Dose-dependent inhibition of lactate formation; format: cell-based; conditions: 20, 40, 60, 80 µM, up to 72 hours
[5] = test system: all tumorigenic cell lines tested; experiment: ROS/SOX reduction by sequential re-insertion, statement for all lines; format: cell-based; conditions: sequentially re-added every 24 hours
Protocol: After 78 hours cells were washed by centrifugation, and an aliquot of 1 × 10^5 cells was placed into 1 mL of phenol red-free IMDM medium (Thermo Fisher Scientific, Waltham, MA, USA) supplemented with 10% of FBS. The cells were incubated for an additional 3 hours before measurement.
For detecting ROS and SOX levels in the cells, 100 µL of medium was washed with PBS by standard centrifugation protocol and then placed into a well on the 96-well black wall/clear bottom plate. To each well 100 µL ROS detection reagent (Green) and SOX detection reagent (Orange) were added as specified in the Cellular ROS/SOX Detection Assay Kit (ab139476 Abcam, Cambridge, UK). For measuring superoxide Cellular Superoxide Detection Assay Kit (ab139477 Abcam, Cambridge, UK) was used that contains “Orange” but not the “Green” reagent.

Caco-2 cells [6] = experiment: Cytostatic assay (XTT cell proliferation); format: cell-based; conditions: up to 80 µM, 72 hours
Protocol: (§6) Untreated cells and cells treated with different concentrations of inhibitors were incubated for 72 hours before alive cellular biomass was determined according to the manufacturer’s instructions.

COLO 829 cells [7] = experiment: Cytostatic assay (XTT cell proliferation); format: cell-based; conditions: up to 80 µM, 72 hours
Protocol: as §6

MDA-MB-231 cells [8] = experiment: Cytostatic assay (XTT cell proliferation); format: cell-based; conditions: up to 80 µM, 72 hours
Protocol: as §6

Caco-2 cells [9] = experiment: Dose-dependent inhibition of lactate formation; format: cell-based; conditions: 20, 40, 60, 80 µM, up to 72 hours
Protocol: (§7) If not specified differently, the tumorigenic cells were plated in the RPMI 1640 GlutaMax medium (Thermo Fisher Scientific, Waltham, MA, USA) supplemented with 10% FBS at the concentration of 5 × 10^5 cells per mL. The cells were incubated at 37 °C and 5% CO2. Different concentrations of specific inhibitors were added to the medium at the beginning of inoculation. An adequate amount of DMSO used in the solution with the specified concentrations of compounds was added to the vehicle.
(§8) For measuring lactate concentrations in the medium, 20 µL samples were taken at specified time intervals, centrifuged at 1200 rpm for 5 minutes at 4 °C and 15 µL supernatants were preserved at 4 °C until analyzed.
(§9) Lactate levels were assessed enzymatically using an L-Lactic acid assay kit (K-LATE, Megazyme, Bray, Ireland) and measured according to the manufacturer’s instructions.
(§10) The lactate formation, growth yield, and survival under normal and inhibitory conditions of four tumorigenic cell lines were investigated. […] Cells were grown in the presence of vehicles or inhibitors at different concentrations (20, 40, 60, and 80 µM), and lactate levels in the supernatant were determined sequentially.

Jurkat cells [10] = experiment: Dose-dependent inhibition of lactate formation; format: cell-based; conditions: for Stability of the compounds during incubation, indicated by increasing lactate formation in later phases: Jurkat cell culture medium, after 24 hours up to 72 hours; for Lactate formation in the first 24 hours: Jurkat cells, 20, 40, 60, 80 µM, regardless of concentration, later dose-dependent lactate production up to 72 hours
Protocol: as §7, §8, §9, §10

MDA-MB-231 cells [11] = experiment: Dose-dependent inhibition of lactate formation; format: cell-based; conditions: 20, 40, 60, 80 µM, up to 72 hours
Protocol: as §7, §8, §9, §10

Jurkat cells [12] = experiment: Cytostatic assay (XTT cell proliferation); format: cell-based; conditions: 20-80 µM
Protocol: as §6
To investigate possible cytostatic effects of the inhibitors, the total cell number of Jurkat cells treated with vehicles of different concentrations of inhibitors was determined immediately after incubation.

Caco-2 cells [13] = format: cell-based; conditions: 72 hours
Protocol: as §5

COLO 829 cells [14] = format: cell-based; conditions: 72 hours
Protocol: as §5

MDA-MB-231 cells [15] = format: cell-based; conditions: 72 hours
Protocol: as §5

[16] = molecular target: T3, modified sfPFK-L enzyme (70 kDa fragment) (Homo sapiens, UniProt P17858); experiment: PFK1 enzymatic assay, modified sfPFK-L; format: biochemical
T3 construct: 45.920 Da [2] and short PFK-L of 69.942 Da fragments [3], respectively; made in house; host or cells: Saccharomyces cerevisiae pfk-null HD-114-8A
T3 sequence (P17858 2-648): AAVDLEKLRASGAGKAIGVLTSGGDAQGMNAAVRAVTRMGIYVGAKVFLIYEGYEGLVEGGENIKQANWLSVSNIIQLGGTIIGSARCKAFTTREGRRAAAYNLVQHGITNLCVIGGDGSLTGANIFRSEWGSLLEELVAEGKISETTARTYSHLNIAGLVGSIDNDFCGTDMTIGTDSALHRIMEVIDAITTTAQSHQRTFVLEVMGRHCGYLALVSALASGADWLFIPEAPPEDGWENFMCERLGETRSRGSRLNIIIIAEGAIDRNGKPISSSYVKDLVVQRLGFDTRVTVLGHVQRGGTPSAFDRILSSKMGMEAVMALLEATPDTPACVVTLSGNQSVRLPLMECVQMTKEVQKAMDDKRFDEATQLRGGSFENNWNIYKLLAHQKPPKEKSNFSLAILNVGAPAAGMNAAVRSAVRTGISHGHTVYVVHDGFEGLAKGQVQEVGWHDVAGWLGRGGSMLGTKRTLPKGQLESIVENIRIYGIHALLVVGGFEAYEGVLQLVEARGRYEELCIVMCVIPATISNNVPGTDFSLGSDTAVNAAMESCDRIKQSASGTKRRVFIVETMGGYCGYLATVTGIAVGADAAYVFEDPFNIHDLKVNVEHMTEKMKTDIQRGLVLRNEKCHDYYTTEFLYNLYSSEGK
Protocol: as §1, §2, §3, §4

[17] = 10 µM sequentially added every 24 hours

IC50 [1]: 18 µM
IC50 [2]: 15 µM and ~15 µM
Compound: O=C(CSc1nnc(-c2ccc3c(c2)OCO3)o1)Nc1ccon1 [cmpd No. 3, 2-[(5-benzo[1,3]dioxol-5-yl-1,3,4-oxadiazol-2-yl)sulfanyl]-N-isoxazol-3-yl-acetamide]

Average percentage of dead cells (Jurkat cells [3]; 80 µM, end of incubation 72 hours): 3.74 ± 0.3%
Average percentage of dead cells, sequentially treated (Jurkat cells [3]; 10 µ L sequentially added every 24 hours, 72 hours): 3.24 ± 0.25%
Stability of the compounds during incubation, indicated by increasing lactate formation in later phases (Jurkat cells [10]): instability
Average percentage of dead cells, sequentially treated (Caco-2 cells [13]; [17]): 4.03 ± 0.32%
Average percentage of dead cells (Caco-2 cells [13]; dose-dependent test, different concentrations of inhibitors): 3.33 ± 0.14%
Average percentage of dead cells, sequentially treated (COLO 829 cells [14]; [17]): 2.84 ± 0.19%
Average percentage of dead cells (COLO 829 cells [14]; dose-dependent test): 3.65 ± 0.78%
Average percentage of dead cells, sequentially treated (MDA-MB-231 cells [15]; [17]): 2.35 ± 0.09%
Average percentage of dead cells (MDA-MB-231 cells [15]; dose-dependent test): 6.59 ± 0.29%
Compound: COc1ccc(-c2cccc(-c3ccn(Cc4noc(C)n4)n3)c2)nn1 [cmpd No. 9, 3-methoxy-6-(3-{1-[(5-methyl-1,2,4-oxadiazol-3-yl)methyl]-1H-pyrazol-3-yl}phenyl)pyridazine]
Lactate formation, dose-dependent test (COLO 829 cells [4]): Apparent dose-dependent effects of suppressed lactate formation
Reduction of ROS formation ([5]; 5 µM): approximately 50%
Reduction of ROS formation ([5]; 10 and 20 µM): approximately 65%
Cytostatic effect (total number of cells at the end of incubation) (Caco-2 cells [6]): no adverse effects on cell growth
Cytostatic effect (total cell number compared to the control) (COLO 829 cells [7]): No significant differences in the total cell number
Cytostatic effect (total cell number) (MDA-MB-231 cells [8]): No significant differences in total cell number
Lactate accumulation, dose-dependent test (Caco-2 cells [9]): dose-dependent reduction in lactate accumulation
Lactate formation in the first 24 hours (Jurkat cells [10]): no or only small amounts of lactate
Lactate suppression, dose-dependent test (MDA-MB-231 cells [11]): Dose-dependent effects
Cytostatic effect (cells counted after 72 hours of incubation) (Jurkat cells [12]): no significant cytostatic

IC50 [16]: 8 µM
Stability of the compounds during incubation, indicated by increasing lactate formation in later phases (Jurkat cells [10]): instability
Compound: Nc1nnc(-c2cc(-c3ccc(O)cc3)on2)o1 [cmpd No. 30, 4-[3-(5-amino-1,3,4-oxadiazol-2-yl)isoxazol-5-yl]phenol]
Lactate accumulation, dose-dependent test (Caco-2 cells [9]): dose-dependent reduction in lactate accumulation
Lactate formation in the first 24 hours (Jurkat cells [10]): no or only small amounts of lactate
Lactate suppression, dose-dependent test (MDA-MB-231 cells [11]): Dose-dependent effects
